# Tested on: Runx2 gene
# Experiment: Runx2 expression by RT-PCR as a function of density of peptide P1 grafted on a PET model support
# Type: cell-based
# Conditions: P1 grafted on PET at 0.4, 1.2 and 4.3 pmol/mm^2
# Experimental: The peptide P1 was covalently grafted onto a model support, at three different densities. The support is made of polyethylene terephthalate (PET). The densities are 0.4 pmol/mm^2, 1.2 pmol/mm^2 and 4.3 pmol/mm^2. The expression level of the Runx2 factor by RT-PCR as a function of the density of the peptide P1 grafted at the surface of a model support was measured for these three densities (FIG. 13). The best expression level of the Runx2 gene is obtained for 1.2 pmol/mm^2 of peptide density, which corresponds to a maximum cell differentiation activity for the model support.
# The activity obtained is also stable over time (after 1 week of culture): at 96 h of culture, a continuous increase in the expression of the Runx2 factor (approximately 42%) is observed.
sequence,measurement,value
CKIPKASSVPTELSAISMLYL [P1],peptide density giving the best expression level of the Runx2 gene,1.2 pmol/mm^2

# From patent publication US20160022875A1, “BONE SUBSTITUTES GRAFTED BY MIMETIC PEPTIDES OF HUMAN BMP 2 PROTEIN” (TEKNIMED, priority 2013, published 2016)
